Reference: ChEMBL document CHEMBL1909046, “DrugMatrix in vitro pharmacology data”

Columns and labels:
[1] = DRUGMATRIX: Interleukin IL-1 radioligand binding (ligand: [125I] interleukin 1beta); type: cell membranes, Membrane; conditions: nih3t3; Not Active = under 50% inhibition at 10 µM
Cathepsin G = target: T1, Cathepsin G (Homo sapiens, UniProt P08311); type: tissue-based; conditions: neutrophil;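 also: inhibition of Cathepsin G enzyme activity, tested on an AMC-conjugated peptide substrate; in other assays of this panel Not Active means under 50% inhibition at 10 µM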
T1 sequence (P08311 whole entry): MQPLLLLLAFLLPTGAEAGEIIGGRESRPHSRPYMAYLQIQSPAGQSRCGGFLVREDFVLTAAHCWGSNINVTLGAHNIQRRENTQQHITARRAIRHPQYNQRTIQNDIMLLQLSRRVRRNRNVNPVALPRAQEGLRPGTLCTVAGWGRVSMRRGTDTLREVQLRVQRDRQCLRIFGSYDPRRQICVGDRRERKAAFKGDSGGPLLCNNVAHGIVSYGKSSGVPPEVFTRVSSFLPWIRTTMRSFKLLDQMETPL

Estrogen receptor beta = Estrogen receptor beta (Homo sapiens, UniProt Q92731); conditions: sf9; also: in other assays of this panel Not Active means under 50% inhibition at 10 µM
Substance-K receptor = target: T2, Substance-K receptor (Homo sapiens, UniProt P21452); type: cell membranes, CHO, Membrane; conditions: cho; also: in other assays of this panel Not Active means under 50% inhibition at 10 µM
T2 sequence (P21452 whole entry): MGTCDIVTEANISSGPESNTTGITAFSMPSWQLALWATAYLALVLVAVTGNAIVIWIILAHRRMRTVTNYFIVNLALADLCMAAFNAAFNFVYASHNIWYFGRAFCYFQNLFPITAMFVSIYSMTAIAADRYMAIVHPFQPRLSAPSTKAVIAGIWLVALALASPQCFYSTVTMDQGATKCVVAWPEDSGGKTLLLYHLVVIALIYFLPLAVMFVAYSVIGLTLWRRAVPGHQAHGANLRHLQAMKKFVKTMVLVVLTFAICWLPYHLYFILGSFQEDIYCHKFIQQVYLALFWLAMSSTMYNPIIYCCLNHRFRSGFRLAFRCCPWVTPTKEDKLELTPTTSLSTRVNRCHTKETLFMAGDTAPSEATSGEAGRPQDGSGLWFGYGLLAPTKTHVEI

[2] = target: Tyrosine-protein kinase Lck (Homo sapiens, UniProt P06239); test: DRUGMATRIX: Protein Tyrosine Kinase, LCK enzyme inhibition (substrate: Poly(Glu:Tyr)); type: cell-based, Insect cells; conditions: Not Active = under 50% inhibition at 10 µM
[3] = DRUGMATRIX: Platelet-Derived Growth Factor (PDGF) radioligand binding (ligand: [125I] PDGF); type: cell-based; conditions: nih3t3; Not Active = under 50% inhibition at 10 µM
[4] = target: T3, Alpha-1A adrenergic receptor (Rattus norvegicus, UniProt P43140); test: DRUGMATRIX: Alpha-1A adrenergic receptor radioligand binding (ligand: prazosin); type: cell membranes, Wistar, Submaxillary gland, Membrane; conditions: Not Active = under 50% inhibition at 10 µM
T3 sequence (P43140 whole entry): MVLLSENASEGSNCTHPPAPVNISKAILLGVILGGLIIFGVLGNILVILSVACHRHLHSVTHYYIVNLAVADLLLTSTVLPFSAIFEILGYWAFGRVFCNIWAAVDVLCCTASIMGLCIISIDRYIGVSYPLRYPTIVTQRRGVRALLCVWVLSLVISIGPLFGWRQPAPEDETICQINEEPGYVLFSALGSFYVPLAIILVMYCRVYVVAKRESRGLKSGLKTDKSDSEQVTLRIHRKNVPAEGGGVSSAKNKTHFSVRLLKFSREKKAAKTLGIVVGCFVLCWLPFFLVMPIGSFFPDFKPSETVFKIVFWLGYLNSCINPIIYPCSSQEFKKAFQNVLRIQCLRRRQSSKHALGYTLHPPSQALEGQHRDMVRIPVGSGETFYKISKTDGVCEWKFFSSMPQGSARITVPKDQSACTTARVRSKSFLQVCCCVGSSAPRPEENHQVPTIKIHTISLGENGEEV

Estrogen receptor beta, sequence (Q92731 whole entry): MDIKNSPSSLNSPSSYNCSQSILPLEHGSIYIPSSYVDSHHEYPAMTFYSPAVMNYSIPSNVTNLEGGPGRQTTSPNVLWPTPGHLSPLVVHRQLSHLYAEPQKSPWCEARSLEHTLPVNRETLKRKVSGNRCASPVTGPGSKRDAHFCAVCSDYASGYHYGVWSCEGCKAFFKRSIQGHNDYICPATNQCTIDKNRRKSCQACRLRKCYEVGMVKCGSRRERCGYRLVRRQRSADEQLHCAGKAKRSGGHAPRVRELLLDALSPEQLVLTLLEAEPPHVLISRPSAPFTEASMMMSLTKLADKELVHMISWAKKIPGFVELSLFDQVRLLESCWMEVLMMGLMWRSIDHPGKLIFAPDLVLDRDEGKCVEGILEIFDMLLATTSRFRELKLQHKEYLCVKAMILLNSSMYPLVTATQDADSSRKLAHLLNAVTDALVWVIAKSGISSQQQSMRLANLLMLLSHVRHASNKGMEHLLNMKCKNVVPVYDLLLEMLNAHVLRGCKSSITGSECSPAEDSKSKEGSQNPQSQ
Tyrosine-protein kinase Lck, sequence (P06239 whole entry): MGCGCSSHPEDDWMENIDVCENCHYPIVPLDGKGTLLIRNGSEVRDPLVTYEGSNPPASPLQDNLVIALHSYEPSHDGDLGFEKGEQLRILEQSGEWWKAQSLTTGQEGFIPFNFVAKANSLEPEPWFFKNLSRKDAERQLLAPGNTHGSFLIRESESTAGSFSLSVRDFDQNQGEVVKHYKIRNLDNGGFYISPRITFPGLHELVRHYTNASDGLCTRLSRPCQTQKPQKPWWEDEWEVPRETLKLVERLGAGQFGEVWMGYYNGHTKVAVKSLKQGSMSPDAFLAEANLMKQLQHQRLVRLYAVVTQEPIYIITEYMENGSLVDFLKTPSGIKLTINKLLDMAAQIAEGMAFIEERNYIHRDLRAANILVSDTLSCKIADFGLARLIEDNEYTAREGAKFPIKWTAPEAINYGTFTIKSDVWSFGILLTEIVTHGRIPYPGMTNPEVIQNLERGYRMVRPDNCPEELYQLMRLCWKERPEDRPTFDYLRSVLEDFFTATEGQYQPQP

SMILES	IC50 [1]	Ki [1]	IC50 (Cathepsin G)	IC50 (Estrogen receptor beta)	IC50 (Substance-K receptor)	IC50 ([2]; insect cells)	IC50 [3]	Ki [3]	IC50 [4]	IC50 ([2]; read-out: IC50) [µM]	Ki ([2]; insect cells)
CO[C@H]1[C@@H](O)[C@H](N)[C@@H](O[C@H]2O[C@H]([C@H](C)N)CC[C@H]2N)[C@H](O)[C@@H]1N(C)C(=O)CN [ASTROMICIN]	Not Active	Not Active	Not Active	Not Active	Not Active	Not Active	Not Active	Not Active	Not Active		
CC[C@H]1OC(=O)[C@H](C)[C@@H](O[C@H]2C[C@@](C)(OC)[C@@H](O)[C@H](C)O2)[C@H](C)[C@@H](O[C@@H]2O[C@H](C)C[C@H](N(C)C)[C@H]2O)[C@](C)(O)C[C@@H](C)CN(C)[C@H](C)[C@@H](O)[C@]1(C)O [AZITHROMYCIN]	Not Active	Not Active	Not Active	Not Active	Not Active	Not Active	Not Active	Not Active	Not Active		
CC(C)(C)c1ccc(S(=O)(=O)/C=C/C#N)cc1 [BAY-11-7085]	Not Active	Not Active	Not Active	Not Active	Not Active	Not Active	Not Active	Not Active	Not Active		
CCc1oc2ccccc2c1C(=O)c1cc(Br)c(O)c(Br)c1 [BENZBROMARONE]	Not Active	Not Active	Not Active	Not Active	Not Active	Not Active	Not Active	Not Active	Not Active		
O=c1cc(-c2ccccc2)oc2ccc3ccccc3c12 [BETA-NAPHTHOFLAVONE]	Not Active	Not Active	Not Active	Not Active	Not Active	Not Active	Not Active	Not Active	Not Active		
O=C(/C=C/c1ccc(O)c(O)c1)OCCc1ccccc1 [CAFFEIC ACID PHENETHYL ESTER]	Not Active	Not Active	Not Active	Not Active	Not Active		Not Active	Not Active	Not Active	2.89	
COc1cc(CNC(=O)CCCC/C=C/C(C)C)ccc1O [CAPSAICIN]	Not Active	Not Active	Not Active	Not Active	Not Active	Not Active	Not Active	Not Active	Not Active		
NC(=O)N1c2ccccc2C=Cc2ccccc21 [CARBAMAZEPINE]	Not Active	Not Active	Not Active	Not Active	Not Active	Not Active	Not Active	Not Active	Not Active		
CCOC(=O)n1ccn(C)c1=S [CARBIMAZOLE]	Not Active	Not Active	Not Active	Not Active	Not Active		Not Active	Not Active	Not Active		Not Active
Oc1ccccc1O [CATECHOL]	Not Active	Not Active	Not Active	Not Active	Not Active	Not Active	Not Active	Not Active	Not Active		
CO[C@@]1(NC(=O)CSCC#N)C(=O)N2C(C(=O)O)=C(CSc3nnnn3C)CS[C@@H]21 [CEFMETAZOLE]	Not Active	Not Active	Not Active	Not Active	Not Active	Not Active	Not Active	Not Active	Not Active		
CN(C(=O)CCCOc1ccc2[nH]c(=O)ccc2c1)C1CCCCC1 [CILOSTAMIDE]	Not Active	Not Active	Not Active	Not Active	Not Active	Not Active	Not Active	Not Active	Not Active		
